Measured values: patent publication US10508085B2, “Compounds and methods for IDO and TDO modulation, and indications therefor” (Plexxikon Inc., priority 2016, dated 2019)

What was measured:
[1] = biological target: T1, Human Indoleamine 2,3-dioxygenase (IDO) (Homo sapiens, UniProt P14902); assay: Human IDO enzymatic assay (kynurenine level); assay type: biochemical; conditions: 6 nM IDO, 10 μM L-Trp; geometric mean; read-out: IDO1 GMean: IC50 (μM) (Biochemical Assay)
T1 construct: His tag (N); made in house; host or cells: E. coli
T1 sequence (P14902 whole entry): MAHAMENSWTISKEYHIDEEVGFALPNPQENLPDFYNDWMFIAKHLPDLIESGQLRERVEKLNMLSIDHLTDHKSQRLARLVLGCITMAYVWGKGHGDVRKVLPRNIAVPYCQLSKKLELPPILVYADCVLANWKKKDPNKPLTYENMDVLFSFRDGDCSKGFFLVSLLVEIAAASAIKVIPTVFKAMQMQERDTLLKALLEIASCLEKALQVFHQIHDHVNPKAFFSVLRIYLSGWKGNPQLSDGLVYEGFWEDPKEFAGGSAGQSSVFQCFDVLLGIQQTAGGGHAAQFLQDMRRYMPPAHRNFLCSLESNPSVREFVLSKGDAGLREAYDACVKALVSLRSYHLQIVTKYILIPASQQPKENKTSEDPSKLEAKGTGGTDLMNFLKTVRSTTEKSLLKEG
Summary of the method: (§1)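 Kynurenine formed is measured after TCA quench and 50 °C hydrolysis, with % inhibition against full-reaction and no-enzyme controls (5% DMSO). IDO: 6 nM enzyme, 10 μM L-Trp, 5 μM methylene blue, 20 min; TDO: 1 nM, 350 μM L-Trp, 0.4 μM methylene blue, 70 min; both pH 6.5, room temp, E. coli-expressed His-tagged.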

[2] = biological target: T2, human TDO (TDO-expressing HEK293 cells) (Homo sapiens, UniProt P48775); assay: Cell based kynurenine assay, TDO-expressing HEK293 cell clones; conditions: TDO-expressing HEK293 cells, 24 hours, geometric mean; read-out: HEK293 TDO Kynurenine GMean IC50 (μM) (Cellular Assay)
T2 construct: expressed in transfected cells
T2 sequence (P48775 whole entry): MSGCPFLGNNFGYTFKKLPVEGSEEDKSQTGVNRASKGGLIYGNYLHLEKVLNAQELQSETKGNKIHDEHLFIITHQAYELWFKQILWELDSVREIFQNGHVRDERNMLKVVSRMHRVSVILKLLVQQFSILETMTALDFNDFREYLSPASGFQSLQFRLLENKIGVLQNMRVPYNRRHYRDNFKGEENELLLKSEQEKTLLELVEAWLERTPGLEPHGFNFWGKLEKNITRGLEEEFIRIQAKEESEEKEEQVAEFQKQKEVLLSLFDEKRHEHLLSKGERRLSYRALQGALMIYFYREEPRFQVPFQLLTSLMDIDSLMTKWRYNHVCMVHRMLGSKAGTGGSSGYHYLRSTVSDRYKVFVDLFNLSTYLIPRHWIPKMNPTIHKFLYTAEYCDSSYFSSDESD
Summary of the method: (§2)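 Supernatant kynurenine was measured after 24 h exposure of stably transfected HEK293 cells (human IDO1 or TDO, 2.5×10^4/well) to serially diluted compound. Percent inhibition used 0.2% DMSO cell wells as high and media-only wells as low controls; IC50 fitted by nonlinear regression.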

[3] = biological target: T3, human IDO (IDO1-expressing HEK293 cells) (Homo sapiens, UniProt P14902); assay: Cell based kynurenine assay, IDO1-expressing HEK293 cell clones; conditions: IDO1-expressing HEK293 cells, 24 hours, geometric mean; read-out: HEK293 IDO1 Kynurenine GMean IC50 (μM) (Cellular Assay)
T3 construct: expressed in transfected cells
T3 sequence (P14902 whole entry): as the sequence (P14902 whole entry) above
Summary of the method: as §2

[4] = biological target: T4, Human Tryptophan 2,3-dioxygenase (TDO) (Homo sapiens, UniProt P48775); assay: Human TDO enzymatic assay (kynurenine level); assay type: biochemical; conditions: 1 nM TDO, 350 μM L-Trp; geometric mean; read-out: TDO GMean: IC50 (μM) (Biochemical Assay)
T4 construct: His tag (N); made in house; host or cells: E. coli
T4 sequence (P48775 whole entry): as the sequence (P48775 whole entry) above
Summary of the method: as §1

SMILES	IC50 [1] [µM]	IC50 [2] [µM]	IC50 [3] [µM]	IC50 [4] [µM]
O=C(CC1CCS(=O)(=O)CC1)N1CCC(C(F)(F)C(O)c2cc(Cl)cc3cn[nH]c23)CC1 (stereo not shown) [Compound P-0481, 1-(4-(2-(5-chloro-1H-indazol-7-yl)-1,1-difluoro-2-hydroxyethyl)piperidin-1-yl)-2-(1,1-dioxidotetrahydro-2H-thiopyran-4-yl)ethan-1-one]	0.0001 to 10	> 10	0.0001 to 10	0.0001 to 10
O=C(NCC1COC1)N1CCC(C(F)(F)C(O)c2cc(Cl)cc3cn[nH]c23)CC1 (stereo not shown) [Compound P-0482, 4-(2-(5-chloro-1H-indazol-7-yl)-1,1-difluoro-2-hydroxyethyl)-N-(oxetan-3-ylmethyl)piperidine-1-carboxamide]	0.0001 to 10	0.0001 to 10	0.0001 to 10	0.0001 to 10
N#Cc1ccc(NC(=O)N2CCC(C(F)(F)C(O)c3cc(Cl)cc4cn[nH]c34)CC2)cc1 (stereo not shown) [Compound P-0483, 4-(2-(5-chloro-1H-indazol-7-yl)-1,1-difluoro-2-hydroxyethyl)-N-(4-cyanophenyl) piperidine-1-carboxamide]	0.0001 to 10	0.0001 to 10	0.0001 to 10	0.0001 to 10
O=C(Nc1ccc(Cl)cc1)N1CCC(C(F)(F)C(O)c2cc(Cl)cc3cn[nH]c23)CC1 (stereo not shown) [Compound P-0484, 4-(2-(5-chloro-1H-indazol-7-yl)-1,1-difluoro-2-hydroxyethyl)-N-(4-chlorophenyl) piperidine-1-carboxamide]	0.0001 to 10	0.0001 to 10	0.0001 to 10	0.0001 to 10
O=C(Nc1cccc(Cl)c1)N1CCC(C(F)(F)C(O)c2cc(Cl)cc3cn[nH]c23)CC1 (stereo not shown) [Compound P-0488, 4-(2-(5-chloro-1H-indazol-7-yl)-1,1-difluoro-2-hydroxyethyl)-N-(3-chlorophenyl) piperidine-1-carboxamide]	0.0001 to 10	0.0001 to 10	0.0001 to 10	0.0001 to 10
CC(C)(C)OC(=O)N1CCC(C(F)(F)C(O)c2c3c(cc4cn[nH]c24)CC3)CC1 (stereo not shown) [Compound P-0490, tert-butyl 4-(2-(5,6-dihydro-1H-cyclobuta[f]indazol-7-yl)-1,1-difluoro-2-hydroxyethyl) piperidine-1-carboxylate]	0.0001 to 10	0.0001 to 10	0.0001 to 10	0.0001 to 10
CN1CCN(Cc2ccc(NC(=O)N3CCC(C(C)(C)C(O)c4cc(Cl)cc5cn[nH]c45)CC3)cc2)CC1 (stereo not shown) [Compound P-0491, 4-(1-(5-chloro-1H-indazol-7-yl)-1-hydroxy-2-methylpropan-2-yl)-N-(4-((4-methylpiperazin-1-yl)methyl)phenyl) piperidine-1-carboxamide]	0.0001 to 10	0.0001 to 10	0.0001 to 10	0.0001 to 10
CC(C)(C1CCN(C(=O)NCCN2CCCS2(=O)=O)CC1)C(O)c1cc(Cl)cc2cn[nH]c12 (stereo not shown) [Compound P-0492, 4-(1-(5-chloro-1H-indazol-7-yl)-1-hydroxy-2-methylpropan-2-yl)-N-(2-(1,1-dioxidoisothiazolidin-2-yl)ethyl)piperidine-1-carboxamide]	0.0001 to 10	0.0001 to 10	0.0001 to 10	0.0001 to 10
O=C(Cc1ccc(Cl)nc1)N1CCC(C(F)(F)C(O)c2cc(Cl)cc3cn[nH]c23)CC1 (stereo not shown) [Compound P-0495, 1-(4-(2-(5-chloro-1H-indazol-7-yl)-1,1-difluoro-2-hydroxyethyl)piperidin-1-y1)-2-(6-chloropyridin-3-yl)ethan-1-one]	0.0001 to 10	0.0001 to 10	0.0001 to 10	0.0001 to 10
CC(C)(C1CCN(C(=O)CN2CCS(=O)(=O)CC2)CC1)[C@H](O)c1cc(Cl)cc2cn[nH]c12 [Compound P-0497, (S)-1-(4-(1-(5-chloro-1H-indazol-7-yl)-1-hydroxy-2-methylpropan-2-yl)piperidin-l-yl)-2-(1,1-dioxidothiomorpholino) ethan-1-one]	0.0001 to 10	0.0001 to 10	0.0001 to 10	0.0001 to 10
CC(C)(C1CCN(C(=O)NCCO)CC1)[C@H](O)c1cc(Cl)cc2cn[nH]c12 [Compound P-0499, (S)-4-(1-(5-chloro-1H-indazol-7-yl)-1-hydroxy-2-methylpropan-2-yl)-N-(2-hydroxyethyl)piperidine-1-carboxamide]	0.0001 to 10	0.0001 to 10	0.0001 to 10	0.0001 to 10
CC(C)(C1CCN(C(=O)CN2CCOCC2)CC1)[C@H](O)c1cc(Cl)cc2cn[nH]c12 [Compound P-0501, (S)-1-(4-(1-(5-chloro-1H-indazol-7-yl)-1-hydroxy-2-methylpropan-2-yl)piperidin-1-yl)-2-morpholinoethan-1-one]	0.0001 to 10	0.0001 to 10	0.0001 to 10	0.0001 to 10
CC(C)(C1CCN(C(=O)CC2CCS(=O)(=O)CC2)CC1)[C@H](O)c1cc(Cl)cc2cn[nH]c12 [Compound P-0502, (S)-1-(4-(1-(5-chloro-1H-indazol-7-yl)-1-hydroxy-2-methylpropan-2-yl)piperidin-1-yl)-2-(1,1-dioxidotetrahydro-2H-thiopyran-4-yl)ethan-1-one]	0.0001 to 10	0.0001 to 10	0.0001 to 10	0.0001 to 10

The remaining lines, values ahead:

IC50 [1] [µM]	IC50 [2] [µM]	IC50 [3] [µM]	IC50 [4] [µM]	SMILES
0.0001 to 10	> 10	0.0001 to 10	0.0001 to 10	O=C(CN1CCS(=O)(=O)CC1)N1CCC(C(F)(F)C(O)c2cc(Cl)cc3cn[nH]c23)CC1 (stereo not shown) [Compound P-0485, 1-(4-(2-(5-chloro-1H-indazol-7-yl)-1,1-difluoro-2-hydroxyethyl)piperidin-1-yl)-2-(1,1-dioxidothiomorpholino) ethan-1-one]
0.0001 to 10	0.0001 to 10	0.0001 to 10	0.0001 to 10	CC(C)(C1CCN(C(=O)CN2CCCS2(=O)=O)CC1)C(O)c1cc(Cl)cc2cn[nH]c12 (stereo not shown) [Compound P-0486, 1-(4-(1-(5-chloro-1H-indazol-7-yl)-1-hydroxy-2-methylpropan-2-yl)piperidin-1-yl)-2-(1,1-dioxidoisothiazolidin-2-yl)ethan-1-one]
0.0001 to 10	0.0001 to 10	0.0001 to 10	0.0001 to 10	CC(C)(C1CCN(C(=O)CN2CCS(=O)(=O)CC2)CC1)C(O)c1cc(Cl)cc2cn[nH]c12 (stereo not shown) [Compound P-0487, 1-(4-(1-(5-chloro-1H-indazol-7-yl)-1-hydroxy-2-methylpropan-2-yl)piperidin-1-yl)-2-(1,1-dioxidothiomorpholino) ethan-1-one]
0.0001 to 10	0.0001 to 10	0.0001 to 10	0.0001 to 10	O=C(CN1CCCS1(=O)=O)N1CCC(C(F)(F)C(O)c2cc(Cl)cc3cn[nH]c23)CC1 (stereo not shown) [Compound P-0489, 1-(4-(2-(5-chloro-1H-indazol-7-yl)-1,1-difluoro-2-hydroxyethyl)piperidin-1-yl)-2-(1,1-dioxidoisothiazolidin-2-yl)ethan-1-one]
0.0001 to 10	0.0001 to 10	0.0001 to 10	0.0001 to 10	CC(C)(C1CCN(C(=O)NCCNS(C)(=O)=O)CC1)C(O)c1cc(Cl)cc2cn[nH]c12 (stereo not shown) [Compound P-0493, 4-(1-(5-chloro-1H-indazol-7-yl)-1-hydroxy-2-methylpropan-2-yl)-N-(2-(methylsulfonamido)ethyl)piperidine-1-carboxamide]
0.0001 to 10	0.0001 to 10	0.0001 to 10	0.0001 to 10	O=C(Cc1ccc(Cl)cc1)N1CCC(C(F)(F)C(O)c2cc(Cl)cc3cn[nH]c23)CC1 (stereo not shown) [Compound P-0494, 1-(4-(2-(5-chloro-1H-indazol-7-yl)-1,1-difluoro-2-hydroxyethyl)piperidin-1-yl)-2-(4-chlorophenyl)ethan-1-one]
0.0001 to 10	0.0001 to 10	0.0001 to 10	0.0001 to 10	COc1ccc(CC(=O)N2CCC(C(F)(F)C(O)c3cc(Cl)cc4cn[nH]c34)CC2)cc1 (stereo not shown) [Compound P-0496, 1-(4-(2-(5-chloro-1H-indazol-7-yl)-1,1-difluoro-2-hydroxyethyl)piperidin-1-yl)-2-(4-methoxyphenyl) ethan-1-one]
0.0001 to 10	0.0001 to 10	0.0001 to 10	0.0001 to 10	CC(C)(C1CCN(C(=O)C2CCC2)CC1)[C@H](O)c1cc(Cl)cc2cn[nH]c12 [Compound P-0498, (S)-(4-(1-(5-chloro-1H-indazol-7-yl)-1-hydroxy-2-methylpropan-2-yl)piperidin-1-yl)(cyclobutyl)methanone]
0.0001 to 10	0.0001 to 10	0.0001 to 10	0.0001 to 10	CC(C)(C1CCN(C(=O)Nc2ccc(C#N)cc2)CC1)[C@H](O)c1c(F)c(Cl)cc2cn[nH]c12 [Compound P-0503, (S)-4-(1-(5-chloro-6-fluoro-1H-indazol-7-yl)-1-hydroxy-2-methylpropan-2-yl)-N-(4-cyanophenyl) piperidine-1-carboxamide]
